Entries after “also recorded” stand apart in the source; their conditions may differ. Where a name gives a salt, the structure may show the parent alone. Read-outs that look alike come from different tables or passages of the source.
Key:
CYP3A4 [1] = assay: TaqMan RT-PCR of small intestinal CYP3A4 mRNA; type: in vivo, mouse; conditions: MBP vemurafenib 100 mg/kg b.i.d. four days
CYP3A4 [2] = target: T1, CYP3A4 (Homo sapiens, UniProt P08684)
Target sequence in this assay (P08684 whole entry): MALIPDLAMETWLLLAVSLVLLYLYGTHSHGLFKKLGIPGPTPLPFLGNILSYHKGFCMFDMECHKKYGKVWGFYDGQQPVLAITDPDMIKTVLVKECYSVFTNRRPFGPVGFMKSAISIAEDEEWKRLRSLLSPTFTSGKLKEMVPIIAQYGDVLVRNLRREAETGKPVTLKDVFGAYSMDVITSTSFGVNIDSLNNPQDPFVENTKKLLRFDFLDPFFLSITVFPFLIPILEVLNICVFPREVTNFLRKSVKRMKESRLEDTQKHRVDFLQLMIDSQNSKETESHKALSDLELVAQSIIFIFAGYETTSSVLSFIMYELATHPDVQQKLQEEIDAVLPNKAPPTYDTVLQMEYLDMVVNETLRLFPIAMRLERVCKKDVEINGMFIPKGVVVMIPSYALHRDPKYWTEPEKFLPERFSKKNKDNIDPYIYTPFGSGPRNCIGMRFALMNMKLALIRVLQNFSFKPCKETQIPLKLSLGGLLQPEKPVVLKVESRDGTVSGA

Abcb1b = assay: TaqMan RT-PCR of small intestinal Abcb1b mRNA; type: in vivo, mouse
[3] = read-out: Cmax (mean) in patients at steady state; cited from earlier work
[4] = tested on: BRAF^V600E-positive metastatic melanoma; conditions: single agent, all patients with BRAF V600E-positive metastatic melanoma; cited from earlier work
CYP1A2 = conditions: patients at steady state; cited from earlier work
[5] = cited from earlier work
DPX2 cells = assay: Toxicity in DPX2 cells in the PXR-transactivation assay; type: cell-based; conditions: top two concentrations (41.67 and 125 μM), 48 hours
PXR = target: T2, PXR (Homo sapiens, UniProt O75469); assay: PXR-transactivation assay in DPX2 cells
T2 sequence (O75469 1-434): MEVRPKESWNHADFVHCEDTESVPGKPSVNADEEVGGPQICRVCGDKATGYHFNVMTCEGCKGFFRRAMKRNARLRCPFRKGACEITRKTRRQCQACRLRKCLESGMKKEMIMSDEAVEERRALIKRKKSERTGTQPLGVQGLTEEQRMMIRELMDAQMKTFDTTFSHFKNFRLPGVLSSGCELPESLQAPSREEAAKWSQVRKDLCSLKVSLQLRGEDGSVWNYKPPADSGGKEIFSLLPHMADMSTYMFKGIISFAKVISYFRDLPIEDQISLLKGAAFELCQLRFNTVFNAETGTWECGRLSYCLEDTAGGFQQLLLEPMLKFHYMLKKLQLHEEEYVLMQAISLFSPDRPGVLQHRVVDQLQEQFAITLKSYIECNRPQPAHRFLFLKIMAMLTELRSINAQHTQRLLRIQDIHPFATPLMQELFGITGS

[6] = Microsomal stability in pooled human liver microsomes; type: in vitro ADME; conditions: 1 μM, 0.2 mg/mL pooled HLM, presence and absence of NADPH, up to 50 min
[7] = Vemurafenib pharmacokinetics in huPXR/huCAR/huCYP3A4/3A7 mice; type: in vivo, mouse; conditions: for AUC: AUCall of vemurafenib
[8] = Apparent kinetics of OH-vemurafenib formation in MLM; type: in vitro ADME, mouse; conditions: Hill equation fit
CYP2C9 [9] = target: T3, CYP2C9 (Homo sapiens, UniProt P11712); assay: in vitro; conditions: recombinant CYP2C9, pH 7.4
Cyp1a = assay: Western blot of hepatic microsomal Cyp1a; type: in vivo, mouse; conditions: huPXR/huCAR/huCYP3A4/3A7 mice, MBP vemurafenib 100 mg/kg b.i.d. four days
CYP2C9 [10] = target: T3, CYP2C9; conditions: 60 μM compound, 400 pmol/mL enzyme, 15 min
ABCB1 = conditions: MDCK-ABCB1 cell line; cited from earlier work
CYP3A4 [11] = conditions: patients at steady state; cited from earlier work
CYP3A4 [12] = tested on: CYP3A4
[13] = Apparent kinetics of OH-vemurafenib formation in HLM; type: in vitro ADME, human
Abcb1a = assay: TaqMan RT-PCR of small intestinal Abcb1a mRNA; type: in vivo, mouse
[14] = crystalline form, physiological pH; cited from earlier work
[15] = Vemurafenib pharmacokinetics in huPXR/huCAR mice; type: in vivo; conditions: male, mouse, whole blood, po, 50 mg/kg, AUCall of vemurafenib, RIF pre-treatment, Figure 3A
CYP3A4 [16] = target: T1, CYP3A4; assay: biochemical
Target sequence in this assay (P08684 2-503): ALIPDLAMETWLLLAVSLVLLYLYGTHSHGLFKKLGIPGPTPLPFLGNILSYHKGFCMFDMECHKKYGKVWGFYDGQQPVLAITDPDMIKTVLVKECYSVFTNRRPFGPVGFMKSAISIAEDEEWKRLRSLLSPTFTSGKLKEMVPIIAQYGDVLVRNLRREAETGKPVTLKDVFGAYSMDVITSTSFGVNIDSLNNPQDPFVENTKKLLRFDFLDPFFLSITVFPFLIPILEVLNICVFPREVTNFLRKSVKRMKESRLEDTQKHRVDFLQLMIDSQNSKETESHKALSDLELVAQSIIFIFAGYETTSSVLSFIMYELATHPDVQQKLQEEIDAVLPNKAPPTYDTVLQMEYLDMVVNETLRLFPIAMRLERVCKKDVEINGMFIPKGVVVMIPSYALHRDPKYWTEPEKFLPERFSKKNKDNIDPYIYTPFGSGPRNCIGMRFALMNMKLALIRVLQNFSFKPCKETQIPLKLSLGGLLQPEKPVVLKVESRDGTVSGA

CYP2D6 = conditions: patients at steady state; cited from earlier work
COLO205 xenografts = conditions: cited from earlier work
Cyp2b = assay: Western blot of hepatic microsomal Cyp2b; type: in vivo, mouse; conditions: huPXR/huCAR/huCYP3A4/3A7 mice
[17] = type: in vivo, mouse
[18] = type: in vivo; conditions: huPXR/huCAR/huCYP3A4/3A7, mouse, whole blood, po, 100 mg/kg
Abcg2 = assay: TaqMan RT-PCR of small intestinal Abcg2 mRNA; type: in vivo, mouse; conditions: huPXR/huCAR/huCYP3A4/3A7 mice treated with RIF
SLCO1B1 = conditions: cited from earlier work
[19] = tested on: OH-vemurafenib formation in pooled HLM; assay: Inhibition of OH-vemurafenib formation in pooled HLM by CYP inhibitors; type: in vitro ADME, human; conditions: pooled HLM 0.2 mg/mL, 60 μM vemurafenib, 10 min; 1 μM ketoconazole, 2 μM sulfaphenazole
[20] = MBP vemurafenib 100 mg/kg b.i.d. four days
[21] = huPXR/huCAR/huCYP3A4/3A7 mice treated with RIF

T3 sequence (P11712 whole entry): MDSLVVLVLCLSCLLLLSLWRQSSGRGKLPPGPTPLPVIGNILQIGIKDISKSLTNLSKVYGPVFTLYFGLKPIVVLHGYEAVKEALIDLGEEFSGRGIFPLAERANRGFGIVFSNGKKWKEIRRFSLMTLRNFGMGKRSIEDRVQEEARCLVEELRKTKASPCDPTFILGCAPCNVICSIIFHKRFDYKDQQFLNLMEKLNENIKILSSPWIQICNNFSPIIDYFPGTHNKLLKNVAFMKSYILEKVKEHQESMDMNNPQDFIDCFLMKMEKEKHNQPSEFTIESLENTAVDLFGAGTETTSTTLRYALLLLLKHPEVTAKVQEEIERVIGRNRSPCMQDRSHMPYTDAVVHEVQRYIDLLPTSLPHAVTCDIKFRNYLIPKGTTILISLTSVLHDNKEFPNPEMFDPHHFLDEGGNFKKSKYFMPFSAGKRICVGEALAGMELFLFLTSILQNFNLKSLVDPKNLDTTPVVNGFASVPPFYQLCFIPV

CCCS(=O)(=O)Nc1ccc(F)c(C(=O)c2c[nH]c3ncc(-c4ccc(Cl)cc4)cc23)c1F [vemurafenib, Vemurafenib]
Change in small intestinal CYP3A4 mRNA expression (CYP3A4 [1]): no change
Generation of OH-vemurafenib by recombinant CYP (CYP3A4 [2]; 60 μM compound, 400 pmol/mL enzyme, 15 min): formed
Affinity for vemurafenib, CYP3A4 relative to CYP2C9 (CYP3A4 [2]; S50 CYP3A4 vs CYP2C9): 2 fold
Change in small intestinal Abcb1b mRNA expression (Abcb1b; [20]): no change
Cmax [3]: 86 ± 32 µM
Objective tumour response [4]: 48%
Increase in AUC0-last of the CYP1A2 probe caffeine (CYP1A2): 160%
Recovered radioactivity in the parental form ([5]; 0 – 48 hr period): ≥ 94%
Recovered radioactivity in the parental form ([5]; 48 – 96 hr period): 55.5 ± 20.1%
Time for 95% of the radioactive dose to be recovered [5]: 18 days
Total dose recovered within the first 96 hours [5]: 68.5%
Radioactive dose recovered in faeces ([5]; over 18 days): 94%
Radioactive dose recovered in urine ([5]; over 18 days): 1%
Toxicity to DPX2 cells (DPX2 cells): highly toxic
EC50 (PXR): 8.13 µM
EMAX of PXR activation (PXR; DPX2 cells, 48 hours, fold change vs vehicle control): 8.54 fold
Metabolic stability [6]: highly stable
AUC ([7]; male, huPXR/huCAR/huCYP3A4/3A7, mouse, whole blood, po, 50 mg/kg, RIF alone, Figure 5A): 90 ± 13 µg·h/mL
AUC ([7]; male, huPXR/huCAR/huCYP3A4/3A7, mouse, whole blood, po, 50 mg/kg, huPXR/huCAR/huCYP3A4/3A7 mice, RIF pre-treatment, Figure 3A): 121 ± 18 µg·h/mL
AUC ([7]; male, huPXR/huCAR/huCYP3A4/3A7, mouse, whole blood, po, 50 mg/kg, huPXR/huCAR/huCYP3A4/3A7 mice, vehicle pre-treatment, Figure 3A): 432 ± 169 µg·h/mL
AUC ([7]; male, huPXR/huCAR/huCYP3A4/3A7, mouse, whole blood, po, 50 mg/kg, vehicle (CO) alone, Figure 5A): 391 ± 112 µg·h/mL
AUC ([7]; male, huPXR/huCAR/huCYP3A4/3A7, mouse, whole blood, po, 50 mg/kg, vehicle (CO) then elacridar, Figure 5A): 684 ± 85 µg·h/mL
Cmax ([7]; male, huPXR/huCAR/huCYP3A4/3A7, mouse, whole blood, po, 50 mg/kg, Cmax of vemurafenib, vehicle (CO) then elacridar, Figure 5A): 37800 ± 3500 ng/mL
S50 of OH-vemurafenib formation [8]: 23.8 ± 4.9 µM
Vmax of OH-vemurafenib formation [8]: 467 ± 54 peak area/min/mg
Km at 0.15 h (CYP2C9 [9]): 20.4 ± 1.7 µM
Hepatic Cyp1a protein (Western blot) (Cyp1a): moderate induction
Generation of OH-vemurafenib by recombinant CYP (CYP2C9 [10]): formed
ABCB1 interaction (ABCB1): both an ABCB1 substrate and inhibitor
Decrease in AUC0-last of the CYP3A4-specific probe midazolam (CYP3A4 [11]): 39%
Hepatic CYP3A4 protein (Western blot) (CYP3A4 [12]; huPXR/huCAR/huCYP3A4/3A7 mice): weak induction
Vmax for HLM relative to MLM ([13]; HLM vs MLM): approximately 10 fold
S50 of OH-vemurafenib formation ([13]; HLM, Hill equation fit): 23.2 ± 0.8 µM
Vmax of OH-vemurafenib formation ([13]; HLM, Hill equation fit): 4879 ± 108 peak area/min/mg
Change in small intestinal Abcb1a mRNA expression (Abcb1a; [20]): no change
Aqueous solubility [14]: 0.01 to 10 µg/mL
AUC [15]: 75 ± 33 µg·h/mL
IC50 (CYP3A4 [16]): 14.9 µM
Increase in AUC0-last of the CYP2D6 probe dextromethorphan (CYP2D6): 47%
AUC0-24 necessary to effect regression of COLO205 xenografts (COLO205 xenografts): 300 µM·h
Hepatic Cyp2b / Cyp2b10 protein (Western blot) (Cyp2b): weak induction
Decrease in Cmax and AUCall and increase in CL in huCYP3A4/3A7 PCN group relative to Cyp3aKO/Cyp3a13+/+ PCN group ([17]; vemurafenib 50 mg/kg oral after PCN for three days): not statistically significant
AUC [18]: 1140 ± 242 µM·h
Cmax [18]: 122 ± 19.7 µM

CO[C@H]1/C=C/O[C@@]2(C)Oc3c(C)c(O)c4c(O)c(c(/C=N/N5CCN(C)CC5)c(O)c4c3C2=O)NC(=O)/C(C)=C\C=C\[C@H](C)[C@H](O)[C@@H](C)[C@@H](O)[C@@H](C)[C@H](OC(C)=O)[C@@H]1C [rifampicin]
Change in mRNA for Abcb1b in the small intestine (Abcb1b; [21]): no change
Change in mRNA for Abcg2 in the small intestine (Abcg2): no change
Increase in mRNA for Abcb1a in the small intestine (Abcb1a; [21]): 4.7 fold

monohydroxy-vemurafenib [OH-vemurafenib]
OH-vemurafenib as share of the total dose ([5]; 48 – 96 hr samples): 3.4%
OH-vemurafenib share of recovered radioactivity ([5]; 48 – 96 hr samples): 13.7%

COc1cc2c(cc1OC)CN(CCc1ccc(NC(=O)c3cccc4c(=O)c5cccc(OC)c5[nH]c34)cc1)CC2 [elacridar, Elacridar hydrochloride]
Inhibition of SLCO1B1 (SLCO1B1): known to inhibit

CCC1(c2ccccc2)C(=O)NC(=O)NC1=O [PB, Phenobarbital]
Effect of PB pre-treatment on vemurafenib kinetic parameters ([7]; PB 80 mg/kg i.p. for three days, huPXR/huCAR/huCYP3A4/3A7 mice): no effect
Hepatic CYP3A4 protein (Western blot) (CYP3A4 [12]; mouse, in vivo): weakly inducing
Hepatic Cyp2b / Cyp2b10 protein (Western blot) (Cyp2b): induction

CC(=O)N1CCN(c2ccc(OCC3COC(Cn4ccnc4)(c4ccc(Cl)cc4Cl)O3)cc2)CC1 (stereo not drawn) [ketoconazole]
Inhibition of OH-vemurafenib formation [19]: significantly inhibited

Nc1ccc(S(=O)(=O)Nc2ccnn2-c2ccccc2)cc1 [sulfaphenazole]
Inhibition of OH-vemurafenib formation [19]: partial decrease; also recorded: small but statistically significant decrease

CC(=O)[C@H]1[C@H](C#N)C[C@H]2[C@@H]3CC=C4C[C@@H](O)CC[C@]4(C)[C@H]3CC[C@@]21C [PCN, 5-pregnenolone-3β-ol-20-one-16α-carbonitrile]
Hepatic CYP3A4 protein (Western blot) (CYP3A4 [12]; huCYP3A4/3A7 mice, PCN three days): effectively induced
Effect of PCN pre-treatment on vemurafenib clearance ([17]; PCN 10 mg/kg i.p. three days, Cyp3a null and huCYP3A4/3A7 animals): enhanced clearance equally well

Source: article PMC4634205 (Cancer research, 2015)
